Inhibition data for two compounds are collected here from paper PMC2709817 (Biochemistry, 2009).

Format in all cases: biochemical
Experiment [1] has as its target T1, LpxC (Rhizobium johnstonii, UniProt Q1ME43).
T1 sequence (Q1ME43 1-318): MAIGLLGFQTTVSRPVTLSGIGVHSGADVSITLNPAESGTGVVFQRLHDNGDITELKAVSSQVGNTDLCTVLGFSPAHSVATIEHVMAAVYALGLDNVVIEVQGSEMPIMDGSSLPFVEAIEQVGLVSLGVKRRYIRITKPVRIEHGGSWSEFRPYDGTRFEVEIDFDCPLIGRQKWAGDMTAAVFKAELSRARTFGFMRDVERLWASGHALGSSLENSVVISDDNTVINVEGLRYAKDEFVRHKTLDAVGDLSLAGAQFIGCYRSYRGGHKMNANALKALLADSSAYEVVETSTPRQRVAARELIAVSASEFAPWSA
The experiment in a line: percent inhibition of purified LpxC ortholog at […]. The following applies: read-out: 1-68Aa.

The target of experiment [2] is T2, UDP-3-O-(R-3-hydroxyacyl)-N-acetylglucosamine deacetylase LpxC (Escherichia coli, UniProt P0A725).
T2 sequence (P0A725 1-305): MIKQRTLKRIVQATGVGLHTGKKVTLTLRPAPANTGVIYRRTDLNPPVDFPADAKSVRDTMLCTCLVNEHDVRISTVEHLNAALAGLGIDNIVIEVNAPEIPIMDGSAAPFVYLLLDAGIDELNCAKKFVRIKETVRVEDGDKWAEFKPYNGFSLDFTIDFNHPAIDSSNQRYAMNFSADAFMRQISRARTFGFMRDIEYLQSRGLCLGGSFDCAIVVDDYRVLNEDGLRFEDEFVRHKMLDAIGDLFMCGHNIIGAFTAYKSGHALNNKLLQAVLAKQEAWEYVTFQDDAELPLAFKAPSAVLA
Kind of experiment: percent inhibition of purified LpxC at […]. The following applies: read-out: 1-68Aa.

Experiment [3] deals with T3, LpxC (Helicobacter pylori, UniProt O25692).
T3 sequence (O25692 1-295): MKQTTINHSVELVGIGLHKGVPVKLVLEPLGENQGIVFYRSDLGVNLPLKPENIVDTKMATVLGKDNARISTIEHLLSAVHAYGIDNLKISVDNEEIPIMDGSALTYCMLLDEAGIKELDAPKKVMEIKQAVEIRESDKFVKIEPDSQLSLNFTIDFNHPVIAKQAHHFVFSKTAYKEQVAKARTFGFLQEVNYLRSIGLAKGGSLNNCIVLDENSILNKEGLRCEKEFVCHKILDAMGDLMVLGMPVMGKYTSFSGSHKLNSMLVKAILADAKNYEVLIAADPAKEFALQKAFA
Kind of experiment: percent inhibition of purified LpxC ortholog at […]. As to conditions: read-out: 1-68Aa.

The target of experiment [4] is T3, LpxC. Kind of experiment: percent inhibition of purified LpxC ortholog at […]. The following applies: read-out: 1-68A.

Molecules are shown by their SMILES. Where two headings read alike, the source gives them in different places.

Regarding `O=c1ccn([C@@H]2O[C@H](CON=Cc3ccc(O)c(O)c3)[C@@H](O)[C@H]2O)c(=O)[nH]1` [1-68Aa, 3,4-Dihydroxy-benzaldehyde O-[5-(2,4-dioxo-3,4-dihydro-2H-pyrimidin-1-yl)-3,4-dihydroxy-tetrahydro-furan-2-ylmethyl]-oxime], the inhibition at 50 µM in experiment [1] is 49%; in experiment [2], 60%; in experiment [3], 41%.

As to `O=c1ccn([C@@H]2O[C@H](CON=Cc3ccc(O)c(O)c3O)[C@@H](O)[C@H]2O)c(=O)[nH]1` [1-68A], the inhibition at 50 µM in experiment [4] worked out at 21%.
